Assay results as given in article PMC7927014, “Novel Small Molecule Hsp90/Cdc37 Interface Inhibitors Indirectly Target K-Ras-Signaling” (Cancers, 2021).
pIC50: −log10 of the molar value.

What was measured:
Hsp90, Hsp70 = assay: Western blotting of Hsp90 and Hsp70 (heat shock response); format: cell-based; details: Western blot, 24 h; four cancer cell lines; 17-AAG 2 μM
Procedure: (§1) The cells in the RIPA buffer were placed on ice for 20 min, and were then sonicated in ice cold water for 5 min. […] Equal amounts of protein were separated by 10% SDS-PAGE, and were then transferred onto a nitrocellulose membrane (cat. no. NBA 083C001EA, Protran) using a wet transfer system (Bio-Rad) or semidry Transferblot Turbo Transfer System (Bio-Rad). After the transfer, the membranes were blocked for 30 min in 5% skimmed milk dissolved in 1× TBST, and then incubated with 1:2000 primary antibodies in 5% BSA in TBST at 4 °C overnight.
(§2) The next day, the membranes were washed three times in TBST for 10 min, and then incubated with secondary antibodies (1:5000) diluted in 5% skimmed milk in TBST for 1 h at RT. […] All of the antigens and molecular weights in kDa are labelled next to the blots on the figures. Uncropped Western blot data are attached as Figure S6.

HIF-1α = assay: Western blotting of HIF-1α in nuclear extracts; format: cell-based; details: Western blot of nuclear extracts, 24 h; K-RasG12V-transfected HEK and MDA-MB-231 cells; conglobatin A 5 or 10 μM, 17-AAG 2 μM
Procedure: as §1, §2

Hsp90/Cdc37 [1] = target: T1, Hsp90/Cdc37 (Homo sapiens, UniProt P07900); assay: Hsp90/Cdc37 split Renilla luciferase assay, full length Hsp90 (cell lysate; IC50 and 20 μM validation); format: biochemical; details: MolPort Screening-3, tested concentration of drugs 20 μM
T1 construct: The Hsp90/Cdc37 split Renilla luciferase assay using the full length Hsp90 for the compound screening was described previously; expressed in transfected cells; host or cells: HEK293 EBNA cells, cleared lysates
Procedure: (§3) In the second in silico screening of the FIMM database, we employed the four identified chemical scaffolds (Figure S2B) for the visual inspection of the FIMM compound library. […] All of the purchased compounds were validated in vitro at 20 μM using the split Renilla luciferase assay.
(§4) The Hsp90/Cdc37 split Renilla luciferase assay using the full length Hsp90 for the compound screening was described previously. […] After 48 h, the cells were trypsinized and washed with PBS. The harvested cells were lysed in 1 mL of the 1x lysis buffer provided in the Renilla Luciferase Reporter Assay System Kit from Promega (cat. E2820), and were incubated on ice for 10 min. The cell lysates were then cleared by centrifugation at 13,000× g for 1 min. […] After this, the screening/test compounds or DMSO—as indicated—were added to each well. In total, 5 µL NRL-Hsp90- or NRL-N-Hsp90-lysate was added to each well, one row at a time. Subsequently, the plate was incubated for 5 min at room temperature (RT). […] Just before the reading, 20 µL assay buffer containing 2× Renilla luciferase substrate (coelenterazine) was added. For the FIMM screening, sample wells were read on a PHERAstar plate reader (BMG LABTECH) at a gain level of 4000, after 10 s shaking, using a hypomorph of NRL-Hsp90. For the subsequent validations of the compounds, sample wells with the above-described assay constructs were read using a synergy H1 Hybrid Multi-Mode reader (BioTek) in the luminescence detection mode, as described previously in detail.

Hsp90α (N-terminal) = target: T2, Hsp90α (N-terminal) (Homo sapiens, UniProt P07900); assay: Hsp90 N-terminal ATP-binding site competition assay (FITC-geldanamycin fluorescence polarization)
T2 construct: purchased BPS Bioscience 50298
Procedure: The reaction was initiated by adding 35 ng/μL purified recombinant Hsp90α, and was incubated at RT with slow shaking for 2 h. All of the reactions were performed in a black, low binding NUNC microtiter plate, included in the kit, and the total reaction volume was 50 μL. The enzyme control was measured without the test compound, and the enzyme background control was measured without the test compound or Hsp90α. […] All of the controls and the blank contained 10% DMSO, as did all of the samples of the test compounds. All of the samples were analyzed as duplicates. […] The blank value was subtracted from all of the other values, and the fluorescence polarization was determined as:(1) mP = ((III − I⊥)/(III+ I⊥)) × 1000 where III is the intensity of the parallel, and I┴ the intensity of the perpendicular polarized light.

K-RasG12V nanoclustering = assay: K-RasG12V nanoclustering-FRET (FLIM-FRET) in HEK cells; format: cell-based; details: 24 h, conglobatin A 2 μM, salinomycin 1.3 μM, 17-AAG 2 μM, CAY10585 10 μM, hit compounds indicated concentrations
Procedure: In total, 80,000 HEK cells were seeded in 12-well plates containing sterilized 16-mm coverslips and 1 mL medium. The next day, the cells were transfected using jetPRIME or FuGENE HD transfection reagent. For the donor fluorophore-only samples, the cells were transfected with 500 ng mGFP-tagged RasG12V plasmid. For the nanoclustering-FRET pair samples, the cells were transfected with both the donor and acceptor constructs, i.e., pmGFP- and pmCherry- RasG12V at a plasmid ratio of 1:3, respectively, and a total of 800 ng plasmids. The next day, the cells were treated with either 0.1% DMSO vehicle control or the indicated concentrations of compounds diluted in DMEM or RPMI medium for 24 h. For the gene silencing studies, the cells were transfected with the indicated amounts of siRNAs, together with the FRET pair constructs. The plasmids and siRNA were diluted in the same jetPRIME transfection buffer, followed by the addition of jetPRIME. […] The lifetime of the mGFP donor fluorophore was measured using a fluorescence microscope (Zeiss AXIO Observer D1) equipped with a fluorescence lifetime imaging attachment (Lambert Instruments), as described previously in detail. The apparent FRET efficiency (Eapp) was calculated as Eapp = (1 − τDA/τD) × 100%, with the measured fluorescence lifetimes τDA of the FRET sample and the τD of the donor-only sample.

MDA-MB-231 cells = assay: 2D cell proliferation (alamarBlue); format: cell-based; details: Homo sapiens, MDA-MB-231, 72 h
Procedure: Per well, 500–700 cells were seeded in 96-well flat bottom culture plates in 100 µL. After 24 h, the cells were treated with 0.1% DMSO vehicle control or test compounds diluted in a medium using a 1:2 dilution-series, starting at 100 µM. The plates were further incubated for 72 h. The cell viability was measured after the addition of 10% alamarBlue reagent per well (cat. no. DAL1100, Thermo Fisher Scientific). The fluorescence intensity (excitation 560 nm and emission 590 nm) was measured after 4 h by the use of a H1 Hybrid Multi-Mode reader.

Hsp90/Cdc37 [2] = assay: FIMM screening in split Renilla luciferase assay with hypomorphic NRL-Hsp90 construct, 20 μM; format: biochemical
Procedure: as §3, §4

Gal3 = assay: Western blotting of galectin-3; format: cell-based; details: Western blot, 24 h; K-RasG12V-transfected HEK and MDA-MB-231 cells
Procedure: The cells were trypsinized, washed with PBS, and lysed in RIPA buffer (cat no. 89900, ThermoFisher Scientific) containing protease and phosphatase inhibitors (cat. no. A32959, ThermoFisher Scientific) and 1 mM phenylmethylsulfonyl fluoride (PMSF). The cells in the RIPA buffer were placed on ice for 20 min, and were then sonicated in ice cold water for 5 min. The lysates were centrifuged at 4 °C, and their protein was quantified using a BCA kit (cat. no. 23225, ThermoFisher Scientific). Equal amounts of protein were separated by 10% SDS-PAGE, and were then transferred onto a nitrocellulose membrane (cat. no. NBA 083C001EA, Protran) using a wet transfer system (Bio-Rad) or semidry Transferblot Turbo Transfer System (Bio-Rad). After the transfer, the membranes were blocked for 30 min in 5% skimmed milk dissolved in 1× TBST, and then incubated with 1:2000 primary antibodies in 5% BSA in TBST at 4 °C overnight. […]
The next day, the membranes were washed three times in TBST for 10 min, and then incubated with secondary antibodies (1:5000) diluted in 5% skimmed milk in TBST for 1 h at RT. […] The protein bands were detected with a ChemiDoc MP instrument (Bio-Rad) after treatment with an ECL reagent (cat. no. 170-5061, BioRad). […]

H-RasG12V nanoclustering = assay: H-RasG12V nanoclustering-FRET (FLIM-FRET) in HEK cells; format: cell-based; details: 24 h, conglobatin A 2 μM, salinomycin 1.3 μM, CAY10585 10 μM
Procedure: In total, 80,000 HEK cells were seeded in 12-well plates containing sterilized 16-mm coverslips and 1 mL medium. The next day, the cells were transfected using jetPRIME or FuGENE HD transfection reagent. For the donor fluorophore-only samples, the cells were transfected with 500 ng mGFP-tagged RasG12V plasmid. For the nanoclustering-FRET pair samples, the cells were transfected with both the donor and acceptor constructs, i.e., pmGFP- and pmCherry- RasG12V at a plasmid ratio of 1:3, respectively, and a total of 800 ng plasmids. The next day, the cells were treated with either 0.1% DMSO vehicle control or the indicated concentrations of compounds diluted in DMEM or RPMI medium for 24 h. For the gene silencing studies, the cells were transfected with the indicated amounts of siRNAs, together with the FRET pair constructs. The plasmids and siRNA were diluted in the same jetPRIME transfection buffer, followed by the addition of jetPRIME. After 48 h of transfection, the cells were fixed in 4% paraformaldehyde for 10 to 15 min, before being mounted onto slides with Mowiol 4–88 (cat. no. 81381, Sigma-Aldrich). The lifetime of the mGFP donor fluorophore was measured using a fluorescence microscope (Zeiss AXIO Observer D1) equipped with a fluorescence lifetime imaging attachment (Lambert Instruments), as described previously in detail. The apparent FRET efficiency (Eapp) was calculated as Eapp = (1 − τDA/τD) × 100%, with the measured fluorescence lifetimes τDA of the FRET sample and the τD of the donor-only sample.

Row | normalized RLU (Hsp90/Cdc37 [1]; RLU normalized to DMSO (=1.00)) | Average RLU (Hsp90/Cdc37 [1]; average of 3 wells (DMSO 248028)) | competition with FITC-geldanamycin (ATP-pocket binding, polarization signal) (Hsp90α (N-terminal)) | pIC50 (MDA-MB-231 cells) | normalized RLU (FIMM Screening-1) (Hsp90/Cdc37 [2]; DMSO = 1.00) | normalized RLU (FIMM Screening-2, scaffold based) (Hsp90/Cdc37 [2]; DMSO = 1.00) | Average RLU (FIMM Screening-1) (Hsp90/Cdc37 [2]; mean of 3 wells, DMSO 50019) | Average RLU (FIMM Screening-2, scaffold based) (Hsp90/Cdc37 [2]; mean of 3 wells, DMSO 51006) | SMILES | induction of Hsp90 or Hsp70 expression (heat shock response) (Hsp90, Hsp70) | nuclear levels of HIF-1α (HIF-1α) | K-RasG12V nanoclustering-FRET (K-RasG12V nanoclustering) | Gal3 levels (Gal3) | H-RasG12V nanoclustering-FRET (H-RasG12V nanoclustering)
1 | 0.91 | 225640 RLU | significantly reduced the signal | 6.00 | 0.89 | 0.89 | 44367 RLU | 45379 RLU | C=CCNC1=C2C[C@@H](C)C[C@H](OC)[C@H](O)[C@@H](C)/C=C(\C)[C@H](OC(N)=O)[C@@H](OC)/C=C\C=C(/C)C(=O)NC(=CC1=O)C2=O [17-AAG, 17-allylamino-17-demethoxy-geldanamycin, reference compound] | increase in Hsp90 and, in particular, Hsp70 | decreased the nuclear levels of HIF-1α | same selectivity |  | 
2 |  |  |  |  |  |  |  |  | COC(=O)c1ccc(O)c(NC(=O)COc2ccc(C34CC5CC(CC(C5)C3)C4)cc2)c1 [CAY10585] |  |  | selectively decreased | decreased the Gal3 levels | not H-RasG12V nanoclustering-FRET
3 |  |  |  |  |  |  |  |  | CC[C@@H](C(=O)[C@@H](C)[C@@H](O)[C@H](C)[C@@H]1O[C@@H]([C@@H](CC)C(=O)O)CC[C@@H]1C)[C@H]1O[C@]2(C=C[C@@H](O)[C@]3(CC[C@@](C)([C@H]4CC[C@](O)(CC)[C@H](C)O4)O3)O2)[C@H](C)C[C@@H]1C [salinomycin] |  |  | blocks K-RasG12V- |  | not H-RasG12V-nanoclustering
